Measured values reported in ChEMBL document CHEMBL1124477, “Regional differences in the binding of selective muscarinic receptor antagonists in rat brain: comparison with minimum-energy conformations” (J Med Chem, 1989).

How the values were obtained:
[1] = target: Muscarinic acetylcholine receptor
[2] = target: Muscarinic acetylcholine receptor; remark: listed apart in the source
[3] = target: Muscarinic acetylcholine receptor; remark: listed apart in the source
[4] = target: Muscarinic acetylcholine receptor; remark: listed apart in the source
[5] = target: Muscarinic acetylcholine receptor; remark: listed apart in the source
[6] = target: Muscarinic acetylcholine receptor; remark: listed apart in the source
[7] = target: Muscarinic acetylcholine receptor; remark: listed apart in the source
[8] = target: Muscarinic acetylcholine receptor; remark: listed apart in the source
[9] = target: Muscarinic acetylcholine receptor; remark: listed apart in the source
[10] = target: Muscarinic acetylcholine receptor; type: tissue-based, Rattus norvegicus, Hippocampus
[11] = target: Muscarinic acetylcholine receptor; remark: listed apart in the source
[12] = target: Muscarinic acetylcholine receptor; remark: listed apart in the source
[13] = target: Muscarinic acetylcholine receptor; remark: listed apart in the source
[14] = target: Muscarinic acetylcholine receptor; remark: listed apart in the source
[15] = target: Muscarinic acetylcholine receptor; remark: listed apart in the source
[16] = target: Muscarinic acetylcholine receptor; remark: listed apart in the source
[17] = target: Muscarinic acetylcholine receptor; remark: listed apart in the source
[18] = target: Muscarinic acetylcholine receptor; remark: listed apart in the source
[19] = target: Muscarinic acetylcholine receptor; remark: listed apart in the source
[20] = target: Muscarinic acetylcholine receptor; remark: listed apart in the source
[21] = target: Muscarinic acetylcholine receptor; remark: listed apart in the source
[22] = target: Muscarinic acetylcholine receptor; remark: listed apart in the source
[23] = target: Muscarinic acetylcholine receptor; remark: listed apart in the source
[24] = target: Muscarinic acetylcholine receptor; set-up: species or system Rattus norvegicus
[25] = target: Muscarinic acetylcholine receptor; set-up: species or system Rattus norvegicus; remark: listed apart in the source
[26] = target: Muscarinic acetylcholine receptor; type: tissue-based, Rattus norvegicus, Hippocampus; remark: listed apart in the source
[27] = target: Muscarinic acetylcholine receptor; remark: listed apart in the source
[28] = target: Muscarinic acetylcholine receptor; remark: listed apart in the source
[29] = target: Muscarinic acetylcholine receptor; type: tissue-based, Rattus norvegicus, Hippocampus; remark: listed apart in the source
[30] = target: Muscarinic acetylcholine receptor; remark: listed apart in the source
[31] = target: Muscarinic acetylcholine receptor; remark: listed apart in the source
[32] = target: Muscarinic acetylcholine receptor; remark: listed apart in the source
[33] = target: Muscarinic acetylcholine receptor; remark: listed apart in the source
[34] = target: Muscarinic acetylcholine receptor; remark: listed apart in the source
[35] = target: Muscarinic acetylcholine receptor; remark: listed apart in the source
[36] = target: Muscarinic acetylcholine receptor; remark: listed apart in the source
[37] = target: Muscarinic acetylcholine receptor; remark: listed apart in the source
[38] = target: Muscarinic acetylcholine receptor; remark: listed apart in the source
[39] = target: Muscarinic acetylcholine receptor; remark: listed apart in the source
[40] = target: Muscarinic acetylcholine receptor; remark: listed apart in the source
[41] = target: Muscarinic acetylcholine receptor; remark: listed apart in the source
[42] = target: Muscarinic acetylcholine receptor; remark: listed apart in the source
[43] = target: Muscarinic acetylcholine receptor; remark: listed apart in the source
[44] = target: Muscarinic acetylcholine receptor; remark: listed apart in the source
[45] = target: Muscarinic acetylcholine receptor; remark: listed apart in the source
[46] = target: Muscarinic acetylcholine receptor; remark: listed apart in the source
[47] = target: Muscarinic acetylcholine receptor; remark: listed apart in the source
[48] = target: Muscarinic acetylcholine receptor; remark: listed apart in the source
[49] = target: Muscarinic acetylcholine receptor; remark: listed apart in the source
[50] = target: Muscarinic acetylcholine receptor; remark: listed apart in the source
[51] = target: Muscarinic acetylcholine receptor; remark: listed apart in the source
[52] = target: Muscarinic acetylcholine receptor; remark: listed apart in the source
[53] = target: Muscarinic acetylcholine receptor; remark: listed apart in the source
[54] = target: Muscarinic acetylcholine receptor; remark: listed apart in the source
[55] = target: Muscarinic acetylcholine receptor; remark: listed apart in the source
[56] = target: Muscarinic acetylcholine receptor; remark: listed apart in the source
[57] = target: Muscarinic acetylcholine receptor; remark: listed apart in the source
[58] = target: Muscarinic acetylcholine receptor; remark: listed apart in the source
[59] = target: Muscarinic acetylcholine receptor; remark: listed apart in the source
[60] = target: Muscarinic acetylcholine receptor; remark: listed apart in the source

CCN(CC)CC1CCCCN1CC(=O)N1c2ccccc2C(=O)Nc2cccnc21 (stereo not given) [OTENZEPAD]
IC50 [1]: 9800 nM
IC50 [2]: 580 nM
IC50 [3]: 250 nM
IC50 [4]: 580 nM
IC50 [5]: 420 nM
IC50 [6]: 1300 nM
IC50 [7]: 610 nM
IC50 [8]: 420 nM
IC50 [9]: 1400 nM
IC50 [10]: 6300 nM
IC50 [11]: 7300 nM
IC50 [12]: 7000 nM
IC50 [13]: 1700 nM
IC50 [14]: 4900 nM
IC50 [15]: 1500 nM
IC50 [16]: 320 nM
IC50 [17]: 1800 nM
IC50 [18]: 1300 nM
IC50 [19]: 460 nM
IC50 [20]: 3200 nM
IC50 [21]: 14000 nM
IC50 [22]: 1400 nM
IC50 [23]: 2300 nM
IC50 [24]: 1600 nM
IC50 [25]: 4000 nM
IC50 [26]: 6100 nM
IC50 [27]: 1000 nM
IC50 [28]: 2100 nM
IC50 [29]: 3200 nM
IC50 [30]: 860 nM
IC50 [31]: 620 nM
IC50 [32]: 310 nM
IC50 [33]: 490 nM
IC50 [34]: 720 nM
IC50 [35]: 490 nM
IC50 [36]: 790 nM
IC50 [37]: 4300 nM
IC50 [38]: 1200 nM
IC50 [39]: 2000 nM
IC50 [40]: 230 nM
IC50 [41]: 570 nM
IC50 [42]: 840 nM
IC50 [43]: 4300 nM
IC50 [44]: 300 nM
IC50 [45]: 5800 nM
IC50 [46]: 430 nM
IC50 [47]: 310 nM
IC50 [48]: 240 nM
IC50 [49]: 1000 nM
IC50 [50]: 1900 nM
IC50 [51]: 260 nM
IC50 [52]: 690 nM
IC50 [53]: 2100 nM
IC50 [54]: 680 nM
IC50 [55]: 6500 nM
IC50 [56]: 250 nM
IC50 [57]: 310 nM
IC50 [58]: 260 nM
IC50 [59]: 2900 nM
IC50 [60]: 960 nM
